Tested on: patients with fasting triglyceride levels ≥200 mg/dl and <500 mg/dl despite statin therapy
Experiment: 12-week placebo-controlled, randomized, double-blind study: lipoprotein particle concentrations
Type: in vivo, human
Experimental: A multi-center, placebo-controlled, randomized, double-blind, 12-week study was performed to evaluate the efficacy and safety of >96% E-EPA in patients with fasting triglyceride levels ≥200 mg/dl and <500 mg/dl despite statin therapy (the mean of two qualifying entry values needed to be ≥185 mg/dl and at least one of the values needed to be ≥200 mg/dl). The primary objective of the study was to determine the efficacy of >96% E-EPA 2 g daily and 4 g daily, compared to placebo, in lowering fasting TG levels in patients with high risk for cardiovascular disease and with fasting TG levels ≥200 mg/dl and <500 mg/dl, despite treatment to LDL-C goal on statin therapy. The population for this study was men and women >18 years of age with a body mass index ≤45 kg/m^2 with fasting TG levels greater than or equal to 200 mg/dl and less than 500 mg/dl and on a stable does of statin therapy (with or without ezetimibe). The statin was atorvostatin, rosuvastatin or simvastatin. The dose of statin must have been stable for ≥4 weeks prior to the LDL-C/TG baseline qualifying measurement for randomization. The statin dose was optimized such that the patients are at their LDL-C goal at the LDL-C/TG baseline qualifying measurements. The same statin at the same dose was continued until the study ended. Approximately 702 patients were randomized at approximately 80 centers in the U.S. The study was a 18- to 20-week, Phase 3, multi-center study consisting of 2 study periods: (1) A 6- to 8-week screening period that included a diet and lifestyle stabilization, a non-statin lipid-altering treatment washout, and an LDL-C and TG qualifying period and (2) A 12-week, double-blind, randomized, placebo-controlled treatment period. After confirmation of qualifying fasting LDL-C and TG values, eligible patients entered a 12-week, randomized, double-blind treatment period. At Visit 4 (Week 0), patients were randomly assigned to 1 of the following treatment groups: • >96% E-EPA 2 g daily, • >96% E-EPA 4 g daily, or • Placebo. Eligible patients were randomly assigned at Visit 4 (Week 0) to receive orally >96% E-EPA 2 g daily, >96% E-EPA 4 g daily, or placebo. >96% E-EPA was provided in 1 g liquid-filled, oblong, gelatin capsules. The matching placebo capsule was filled with light liquid paraffin and contained 0 g of >96% E-EPA. >96% E-EPA capsules were to be taken with food (i.e. with or at the end of a meal). […]

In the case of `CC/C=C\C/C=C\C/C=C\C/C=C\C/C=C\CCCC(=O)OCC` [Ethyl Eicosapentaenoate, ethyl eicosapentaenoate], the “reduction of median concentrations of total HDL over baseline when adjusted for placebo” value (4 g per day, stated as a reduction (P<0.0001)) is reported as 7.4%, the “reduction of median concentrations of total LDL over baseline when adjusted for placebo” value (4 g per day, stated as a reduction (P<0.01)) is reported as 7.7% and the “HDL % Change (placebo-adjusted, relative to baseline)” value (4 g/day, 12 weeks, statin-treated patients, median total HDL particle concentration) is reported as −7.4%. For the same molecule, the “LDL % Change (placebo-adjusted, relative to baseline)” value (4 g/day, 12 weeks, statin-treated patients, median total LDL particle concentration) was −7.7%.
